Laboratory results taken from the NIST ThermoML archive (doi:10.1021/je900744x).
Numbers after ± are expanded uncertainties.

Settings: Liquid, Closed cell (Static) method

Row | SMILES | vapor or sublimation pressure (254.31 K) | vapor or sublimation pressure (259.27 K) | vapor or sublimation pressure (269.26 K) | vapor or sublimation pressure (279.47 K) | vapor or sublimation pressure (287.94 K)
1 | CC(F)F [1,1-difluoroethane] | 127 ± 10 kPa | 156 ± 10 kPa | 231 ± 10 kPa | 331 ± 10 kPa | 437 ± 10 kPa
2 | CCC [propane] | 257 ± 10 kPa | 303 ± 10 kPa | 422 ± 10 kPa | 574 ± 10 kPa | 727 ± 10 kPa
